From patent US20240336564A1, “COMPOUND, RUBBER MIXTURE CONTAINING THE COMPOUND, VEHICLE TIRE WHICH HAS AT LEAST ONE COMPONENT COMPRISING THE RUBBER MIXTURE, PROCESS FOR PREPARING THE COMPOUND, AND USE OF THE COMPOUND AS AN AGING PROTECTION AGENT AND/OR ANTIOZONANT AND/OR COLORANT” (CONTINENTAL REIFEN DEUTSCHLAND GMBH, priority 2021, published 2024)

Experiment: Measurement of oxidation induction time (OIT) by DSC
Settings: with liquid polyisoprene LIR-50, isothermal 180° C., O2 atmosphere 50 mL/min, DSC peak; measurement accuracy ±10 min
Method: The compound of formula III) was investigated under laboratory conditions for their potential protective effect as aging stabilizers by measurement of the oxidation induction time.
To this end the compounds of formula III) and 6-PPD in each case together with a polymer (liquid synthetic polyisoprene (IR), LIR-50, Kuraray, weight average molecular weight distribution MW=54 000 g/mol, glass transition temperature Tg=−63° C.) were heated at constant temperature (180° C.) until onset of oxidation (start temperature 35° C., heating to 170° C. at a heating rate of 20 K/min (kelvin per minute), heating to 180° C. at a heating rate of 1 K/min; purge gas: nitrogen (N2), volume flow 50 mL/min). The specimen was isothermally maintained for 5 minutes at 180° C. under an N2 atmosphere and the atmosphere was then switched to an O2 atmosphere (volume flow 50 mL/min).
Oxidation was determined via a peak using DSC (differential scanning calorimetry).
The time in minutes to oxidation was measured.

SMILES | Oxidation induction time (time to oxidation) [min]
CC(C)CC(C)Nc1ccc(Nc2ccccc2)cc1 (centres unmarked) [Compound 6-PPD, N-(1,3-dimethylbutyl)-N′-phenyl-p-phenylenediamine] | 116 ± 10
CC(C)CC(C)Nc1ccc(-c2cc3ccccc3[nH]2)cc1 (centres unmarked) | 121 ± 10
